Source: publication PMC3958412, “Proteasome Dysfunction Mediates High Glucose-Induced Apoptosis in Rodent Beta Cells and Human Islets” (PLoS ONE, 2014)
Residues, ends and D or L forms follow the SMILES beside them. *: point of attachment. Cbz = O=C(OCc1ccccc1)*

How the values were obtained:
Type in all cases: cell-based
[1] = target: T1, 20S proteasome β2 subunit (trypsin-like activity) (Rattus norvegicus, UniProt Q9JHW0); experiment: trypsin-like activity (Z-ARR-MCA cleavage) in lysates of INS-1E cells treated with […] MG-132; conditions: read-out: % inhibition at 150 nM
T1 construct: gene Psmb7; with other subunits of the 20S/26S proteasome
T1 sequence (Q9JHW0 44-277): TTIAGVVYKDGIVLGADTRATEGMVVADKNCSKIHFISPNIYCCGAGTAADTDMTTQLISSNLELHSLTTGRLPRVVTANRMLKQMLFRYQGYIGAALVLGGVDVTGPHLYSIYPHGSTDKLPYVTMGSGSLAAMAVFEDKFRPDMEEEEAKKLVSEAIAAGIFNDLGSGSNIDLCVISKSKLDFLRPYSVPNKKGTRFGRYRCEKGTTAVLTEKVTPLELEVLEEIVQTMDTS

[2] = target: T2, 20S proteasome β1 subunit (caspase-like activity) (Rattus norvegicus, UniProt P28073); experiment: caspase-like activity (Z-LLE-MCA cleavage) in lysates of INS-1E cells treated with […] MG-132; conditions: read-out: % inhibition at 150 nM
T2 construct: gene Psmb6; with other subunits of the 20S/26S proteasome
T2 sequence (P28073 34-238): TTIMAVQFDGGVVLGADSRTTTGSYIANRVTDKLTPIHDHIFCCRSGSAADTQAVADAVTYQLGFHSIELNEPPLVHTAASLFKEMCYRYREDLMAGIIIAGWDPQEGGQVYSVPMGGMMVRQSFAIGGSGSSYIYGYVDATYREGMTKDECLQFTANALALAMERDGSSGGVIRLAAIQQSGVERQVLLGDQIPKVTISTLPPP

[3] = target: T3, 20S proteasome β5 subunit (chymotrypsin-like activity) (Rattus norvegicus, UniProt P28075); experiment: chymotrypsin-like activity (Suc-LLVY-MCA cleavage) in lysates of MG-132-treated INS-1E cells, dose-response
T3 construct: gene Psmb5; with other subunits of the 20S/26S proteasome
T3 sequence (P28075 60-263): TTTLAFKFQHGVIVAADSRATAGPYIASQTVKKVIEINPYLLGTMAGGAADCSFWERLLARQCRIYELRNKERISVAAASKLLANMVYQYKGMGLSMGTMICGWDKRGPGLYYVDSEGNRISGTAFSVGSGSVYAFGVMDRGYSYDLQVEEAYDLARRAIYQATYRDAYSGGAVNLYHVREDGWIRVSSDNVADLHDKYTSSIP

CC(C)C[C@@H](C=O)NC(=O)[C@H](CC(C)C)NC(=O)[C@H](CC(C)C)NC(=O)OCc1ccccc1 [MG-132] (Cbz-Leu-Leu-Leu-aldehyde)
inhibition at 0.15 µM [1]: 50% | inhibition at 0.15 µM [2]: 80% | Ki [3]: 50 nM
